From patent US20160237450A1, “METHOD FOR ENHANCING DROUGHT TOLERANCE IN PLANTS” (Plant Response Biotech S.L., priority 2015, published 2016)

What was measured:
Assay type in all cases: in vivo
[1] = test system: barley plants ('Bomi'); assay: Barley dry weight under drought
Description: (§1) For each drought or limited water experiment 480 seeds (of either pepper, barley, tomato, cucumber or corn) were sown, producing 384 plants in 512 cm^3 pots (4 plants per pot). Plants were grown under chamber conditions at 21° C. for 3 weeks. Then, the plants were moved to a greenhouse, where average temperature was 25° C. to 28° C. Spray and irrigation treatments as described herein were done when the plants had two extended leaves and the next pair of leaves were coming up.
(§2) Treatments: Twelve pots (containing 48 plants) were irrigated with 40 ml of either: water, 0.1 g/L TMAO di-hydrate solution, 1.0 g/L TMAO di-hydrate solution, or 5.5 g/L TMAO di-hydrate solution. Another set of 12 pots containing 48 plants were sprayed with 40 ml of either water (3.3 ml in average per pot), a solution containing 0.1 g/L TMAO di-hydrate solution, 1.0 g/L TMAO di-hydrate, or 5 g/L, or 10 g/L TMAO di-hydrate. Further sets of 12 pots containing 48 plants were both sprayed with each initial solution TMAO di-hydrate solution and further irrigated with the same TMAO di-hydrate solutions used in the control water sprayed plants. All pots were also watered with 40 ml of water. The sprayed plants were watered with the same volume of water as the “irrigated plants). The pots were located on plastic glass to maintain constant moisture and to avoid liquid spillage during watering. Trays containing the pots were located on greenhouse tables. The distribution of the trays on the table and the position on the pots in the tray was changed every week to avoid position effects.
After the treatments described above, the plants were not watered until the pots completely lost their moisture, taking about 4 to 8 days depending on the season, at which point the plants were extremely wilted for the extreme drought experiments. […] For the “extreme drought” experiments plants were allowed to wilt severely before watering and then the plant survival rate was recorded and analyzed. […]

[2] = test system: kohlrabi plants; assay: Yield production without drought stress, kohlrabi; settings: 1 g/l spray every 4 weeks for 3 months, no drought stress
Description: (§3) In order to determine the plant yield productivity under normal conditions, ‘Sabrina’, ‘Candonga’ and ‘Fortuna’ strawberry varieties, leek, lettuce, “Iceberg” variety, broccoli “Parthenon” variety, celery or kohlrabi plants, were grown under standard production conditions and 120 plants of each variety per treatment (where the treatment was a control comprising standard watering or 1 g/L of TMAO di-hydrate spray every four weeks) were analyzed. Plants were located in four (4) different positions for each group of 30 plants from the same treatment. Fruits, leaves or roots were harvested from individual plants and total weight was determined for each plant.
(§4) Root or leaves yield was determined in the plants treated with 1 g/l of TMAO di-hydrate or water as described above in order to evaluate the trade-off costs of the treatment with no drought stress.

[3] = test system: tomato plants ('Rio Grande'); assay: Tomato fruit production under limited water irrigation; settings: 30% water irrigation; 1 g/L spray every 4 weeks
Excerpt: TMAO di-hydrate applied exogenously which increases the endogenous content of TMAO as if the plants were overexpressing an FMO protein at least 4 times increases plant production in tomato under limited water irrigation. ‘Rio Grande’ tomato seeds were sown, grown and treated as described. Spray treatments with 1 g/L TMAO di-hydrate increased both fruit size and fruit production.

[4] = test system: broccoli plants (Parthenon); assay: Yield production without drought stress, broccoli; settings: 1 g/l spray every 4 weeks for 3 months, no drought stress
Description: as §3, §4

[5] = test system: cucumber plants ('Marketer'); assay: Cucumber plant survival under extreme drought
Description: as §1, §2
After the treatments described above, the plants were not watered until the pots completely lost their moisture, taking about 4 to 8 days depending on the season, at which point the plants were extremely wilted for the extreme drought experiments. The plants were then watered once with solutions containing the different amounts of TMAO di-hydrate (0.1 g/L, 1.0 g/L, 5 g/L, or 10 g/L) or just water, after which the plants were left to lose their moisture completely again for three consecutive cycles of watering after wilting. For the “extreme drought” experiments plants were allowed to wilt severely before watering and then the plant survival rate was recorded and analyzed.
TMAO di-hydrate applied exogenously which increases the endogenous content of TMAO as if the plants were overexpressing an FMO protein at least 4 times increases plant survival in cucumber under extreme drought conditions. ‘Marketer’ cucumber seeds were sown, grown and treated as described above.

[6] = test system: celery plants; assay: Yield production without drought stress, celery; settings: 1 g/l spray every 4 weeks for 3 months, no drought stress
Description: as §3, §4

[7] = TMAO accumulation in barley leaves after spray (NMR); settings: 1 g/l spray formulated with 0.1% C8-C10 Alkylpolysaccharide, 1 day post spray
Description: At least three independent plants were treated per experiment.
Leaves were harvested and TMAO was determined by NMR.

[8] = test system: garlic plants; assay: Yield production without drought stress, garlic; settings: 1 g/l spray every 4 weeks for 3 months, no drought stress
Description: as §4

[9] = test system: leek plants; assay: Yield production without drought stress, leek; settings: 1 g/l spray every 4 weeks for 3 months, no drought stress
Description: as §3, §4

[10] = test system: broccoli plants ('Parthenon'); assay: Broccoli inflorescence production under limited water; settings: 30% water; for % Control (inflorescence weight): versus untreated 30% water
Excerpt: TMAO di-hydrate applied exogenously which increases the endogenous content of TMAO as if the plants were overexpressing an FMO protein at least 4 times increases plant production in broccoli under limited water irrigation. ‘Parthenon’ broccoli seeds were sown, grown and treated as described above. Spray and irrigation treatments with 1 g/L TMAO di-hydrate increased plant production, as measured by the average weight of the crown plus stems in grams.

In the case of C[N+](C)(C)[O-].O.O [TMAO di-hydrate, trimethylamine N-oxide di-hydrate], the “AVERAGE DRY weight ± S.E.” value ([1]; initial treatment 1 g/L sprayed, irrigations water, three cycles of wilt-watering) is reported as 1205.4 ± 60.37 mg, the “AVERAGE DRY weight ± S.E.” value ([1]; initial treatment 1 g/L watered, irrigations water, three cycles of wilt-watering) is reported as 1371.4 ± 66.13 mg and the “AVERAGE DRY weight ± S.E.” value ([1]; no initial treatment, irrigations 1 g/L) is reported as 1216.1 ± 33.44 mg. For the same molecule, the “Yield production, % Control” value [2] was 103%, the “AVERAGE WEIGHT (grams/fruit)” value [3] was 76.73 ± 17.67 grams/fruit and the “increase of fruit production over untreated plants with 30% irrigation” value [3] was 45%. For the same molecule, the “Yield production, % Control” value [4] was 120%, the “SURVIVAL RATE (%)” value ([5]; irrigation 0.1 g/L, initial spray 0.1 g/L) was 82.9 ± 7.4% and the “SURVIVAL RATE (%)” value ([5]; irrigation 0.1 g/L, initial spray 1 g/L) was 91.6 ± 7.4%. The “SURVIVAL RATE (%)” value ([5]; irrigation 0.1 g/L, initial spray 5 g/L) was 95.8 ± 7.4%, the “SURVIVAL RATE (%)” value ([5]; irrigation 0.1 g/L, initial spray water) was 45.8 ± 7.4% and the “SURVIVAL RATE (%)” value ([5]; irrigation 1 g/L, initial spray 0.1 g/L) was 91.6 ± 5.9%. The “SURVIVAL RATE (%)” value ([5]; irrigation 1 g/L, initial spray 1 g/L) was 91.6 ± 5.9%, the “SURVIVAL RATE (%)” value ([5]; irrigation 1 g/L, initial spray 5 g/L) was 91.6 ± 5.9% and the “SURVIVAL RATE (%)” value ([5]; irrigation 1 g/L, initial spray water) was 87.5 ± 5.9%. The “SURVIVAL RATE (%)” value ([5]; irrigation 5 g/L, initial spray 0.1 g/L) was 75.0 ± 7.2%, the “SURVIVAL RATE (%)” value ([5]; irrigation 5 g/L, initial spray 1 g/L) was 95.8 ± 7.2% and the “SURVIVAL RATE (%)” value ([5]; irrigation 5 g/L, initial spray 5 g/L) was 95.8 ± 7.2%. For the same molecule, the “SURVIVAL RATE (%)” value ([5]; irrigation 5 g/L, initial spray water) was 66.6 ± 7.2%, the “SURVIVAL RATE (%)” value ([5]; irrigation all regimes, initial spray 0.1 g/L) was 80.1 ± 3.4% and the “SURVIVAL RATE (%)” value ([5]; irrigation all regimes, initial spray 1 g/L) was 92.7 ± 3.4%. For the same molecule, the “SURVIVAL RATE (%)” value ([5]; irrigation all regimes, initial spray 5 g/L) was 94.7 ± 3.4%, the “SURVIVAL RATE (%)” value ([5]; irrigation water, initial spray 0.1 g/L) was 83.3 ± 7.2% and the “SURVIVAL RATE (%)” value ([5]; irrigation water, initial spray 1 g/L) was 91.6 ± 7.2%. The “SURVIVAL RATE (%)” value ([5]; irrigation water, initial spray 5 g/L) was 95.8 ± 7.2%, the “Yield production, % Control” value [6] was 100% and the “TMAO % Control” value [7] was 822%. The “TMAO (μM) in leaves” value [7] was 4633.2 µM, the “Yield production, % Control” value [8] was 109% and the “Yield production, % Control” value [9] was 102%. The “AVERAGE WEIGHT (grams/inflorescence)” value ([10]; 1 g/L irrigation) was 85.2 ± 4.6 grams/inflorescence, the “% Control (inflorescence weight)” value ([10]; 1 g/L irrigation) was 106% and the “AVERAGE WEIGHT (grams/inflorescence)” value ([10]; 1 g/L spray) was 87.3 ± 6.7 grams/inflorescence. For the same molecule, the “% Control (inflorescence weight)” value ([10]; 1 g/L spray) was 108%.
